Assay results reported in PMC10418113 (bioRxiv, 2023).

Legend:
[1] = target: T1, DLD (E3 subunit of purified porcine PDHC) (Sus scrofa, UniProt P09623); assay: diaphorase activity, NBT-formazan at […] nm and in-gel; assay type: biochemical; conditions: 0.1 mg/mL NADH, 0.2 mg/mL NBT, 50 mM potassium phosphate pH 7.0
T1 sequence (P09623 36-509): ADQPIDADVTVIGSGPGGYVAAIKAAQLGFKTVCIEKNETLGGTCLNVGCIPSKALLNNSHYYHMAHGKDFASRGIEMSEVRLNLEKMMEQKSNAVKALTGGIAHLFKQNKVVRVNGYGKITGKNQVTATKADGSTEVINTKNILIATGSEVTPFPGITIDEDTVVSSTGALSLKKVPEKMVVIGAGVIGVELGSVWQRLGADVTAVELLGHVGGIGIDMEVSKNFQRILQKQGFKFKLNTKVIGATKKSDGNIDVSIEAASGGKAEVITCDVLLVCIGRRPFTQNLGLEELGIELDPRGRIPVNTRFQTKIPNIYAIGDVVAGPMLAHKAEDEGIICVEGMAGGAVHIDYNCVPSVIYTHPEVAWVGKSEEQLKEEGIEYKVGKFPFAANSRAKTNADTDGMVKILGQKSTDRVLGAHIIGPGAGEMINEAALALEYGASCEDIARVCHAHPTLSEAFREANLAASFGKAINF

BCKDC (E2 subunit DBT) = BCKDC (E2 subunit DBT) (Mus musculus, UniProt P53395); assay: BCKDC activity of matrix lysate after preincubation, isovaleryl-CoA by LCMS; assay type: biochemical; conditions: read-out: % inhibition at 0.1 μM
Chain of BCKDC (E2 subunit DBT) (P53395 62-482): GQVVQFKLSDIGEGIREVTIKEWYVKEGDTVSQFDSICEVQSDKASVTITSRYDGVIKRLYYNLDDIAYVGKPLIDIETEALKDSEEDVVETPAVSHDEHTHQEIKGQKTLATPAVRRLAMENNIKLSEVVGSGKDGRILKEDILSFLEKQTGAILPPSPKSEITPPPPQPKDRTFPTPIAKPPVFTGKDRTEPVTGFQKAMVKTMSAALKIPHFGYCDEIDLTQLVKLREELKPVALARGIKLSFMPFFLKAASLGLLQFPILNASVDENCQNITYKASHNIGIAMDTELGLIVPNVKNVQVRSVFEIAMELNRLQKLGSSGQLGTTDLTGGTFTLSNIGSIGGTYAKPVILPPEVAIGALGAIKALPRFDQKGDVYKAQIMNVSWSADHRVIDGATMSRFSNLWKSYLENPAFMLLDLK
Chain of BCKDC (E2 subunit DBT) (P50136 43-442 partner): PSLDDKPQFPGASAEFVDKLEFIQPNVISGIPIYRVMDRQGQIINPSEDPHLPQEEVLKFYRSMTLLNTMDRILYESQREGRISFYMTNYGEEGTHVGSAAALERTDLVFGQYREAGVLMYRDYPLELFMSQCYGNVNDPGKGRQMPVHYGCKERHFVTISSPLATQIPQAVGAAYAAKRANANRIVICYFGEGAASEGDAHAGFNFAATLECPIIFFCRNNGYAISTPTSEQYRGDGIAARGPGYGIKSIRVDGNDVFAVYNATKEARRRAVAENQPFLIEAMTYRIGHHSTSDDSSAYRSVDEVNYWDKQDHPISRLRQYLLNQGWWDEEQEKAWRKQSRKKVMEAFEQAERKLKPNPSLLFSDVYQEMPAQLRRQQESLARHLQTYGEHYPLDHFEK
Chain of BCKDC (E2 subunit DBT) (Q6P3A8 49-390 partner): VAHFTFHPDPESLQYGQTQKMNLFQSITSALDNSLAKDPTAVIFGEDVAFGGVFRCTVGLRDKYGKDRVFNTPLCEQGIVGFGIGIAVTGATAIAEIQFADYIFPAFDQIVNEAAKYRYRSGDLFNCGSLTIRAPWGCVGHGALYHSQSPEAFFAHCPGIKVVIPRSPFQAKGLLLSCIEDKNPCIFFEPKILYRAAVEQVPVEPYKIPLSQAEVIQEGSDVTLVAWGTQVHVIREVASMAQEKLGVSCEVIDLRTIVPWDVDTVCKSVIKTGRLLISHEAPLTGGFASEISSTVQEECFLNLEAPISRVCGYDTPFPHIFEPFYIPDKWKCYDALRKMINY
Chain of BCKDC (E2 subunit DBT) (O08749 36-509 partner): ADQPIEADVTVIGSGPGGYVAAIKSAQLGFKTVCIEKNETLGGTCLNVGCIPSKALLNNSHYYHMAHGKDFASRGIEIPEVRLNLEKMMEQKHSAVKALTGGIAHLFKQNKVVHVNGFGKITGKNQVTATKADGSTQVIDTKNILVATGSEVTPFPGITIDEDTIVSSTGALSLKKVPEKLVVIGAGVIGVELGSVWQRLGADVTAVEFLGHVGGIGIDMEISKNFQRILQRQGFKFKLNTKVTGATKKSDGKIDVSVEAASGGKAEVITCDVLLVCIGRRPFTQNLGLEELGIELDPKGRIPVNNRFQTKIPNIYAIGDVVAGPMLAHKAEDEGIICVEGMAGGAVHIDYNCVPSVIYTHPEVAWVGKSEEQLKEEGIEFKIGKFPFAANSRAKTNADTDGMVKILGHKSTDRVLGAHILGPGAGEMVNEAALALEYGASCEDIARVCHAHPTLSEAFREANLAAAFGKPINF

| Structure (SMILES) | diaphorase activity, NBT-formazan at 568 nm and in-gel [1] | inhibition at 0.1 µM (BCKDC (E2 subunit DBT)) |
| --- | --- | --- |
| NC(=O)C1=CN([C@@H]2O[C@H](COP(=O)(O)OP(=O)(O)OC[C@H]3O[C@@H](n4cnc5c(N)ncnc54)[C@H](O)[C@@H]3O)[C@@H](O)[C@H]2O)C=CC1 [NADH] | As a blank control, the same amount of mitochondria lysate was mixed with assay buffer without NADH | – |
| CC(C)(COP(=O)(O)OP(=O)(O)OC[C@H]1O[C@@H](n2cnc3c(N)ncnc32)[C@H](O)[C@@H]1OP(=O)(O)O)[C@@H](O)C(=O)NCCC(=O)NCCSN=O [SNO-CoA] | – | > 50% |
